Results from patent publication US7166622B2, “Substituted phenylsulfonamide inhibitors of beta amyloid production” (Wyeth, priority 2002, dated 2007).
Read-outs that look alike come from different tables or passages of the source.

How the values were obtained:
beta amyloid production = test: Repressor Release Assay (RRA); format: cell-based; conditions: for fold induction at 20 µg/mL / APPI Fold Increase / APPI % of Example #98: Conc 20 μg/ml; for APPI % of Example #98: relative to Example 98
Protocol: CHO-K1 cells were cultured in whole DMEM media (DMEM—High Glucose with 10% fetal bovine serum, 1% Non-essential Amino Acids, and 1% Penicillin-Streptomycin) at 37° C. with 5% CO2. Two million cells were plated into 10-cm dishes 24 hrs prior to transfection.
Transient transfections were completed as recommended by Gibco BRL using their Lipofectamine Plus system. First, 6 μg of pRSVO-luc and 6 μg of APP-lacI construct DNA were added to 460 μL Opti-Mem transfection media and incubated with 30 μL Plus reagent for 15 minutes. Then, a lipid mixture of 40 μL Lipofectamine reagent and 460 μL Opti-Mem transfection media was incubated with the DNA-Plus reagent mixture for 15 minutes. During the DNA-lipid incubation, the CHO-K1 cells were washed once and covered in 5.0 mL DMEM media without Penicillin-Streptomycin. The DNA-lipid preparation was then layered onto these cells and incubated at 37° C. overnight.
[…] transfected cells per well (100 μL total volume) were plated into sterile, opaque Packard 96-well Culture-Plates in clear DMEM whole media (DMEM—without phenol red) and incubated at 37° C. with 5% CO2 for 3-5 hours.
Compounds were diluted using two different protocols; one protocol was used for compounds supplied neat (weighed powder in vial) and the other protocol was used for compounds supplied in solution (20 mM in DMSO in 96-well plates). For both protocols, 25 mM Hepes and 25 mM Hepes/1% DMSO were prepared fresh to be used as diluent. The Hepes/DMSO was used as the diluent control on all experimental plates.
The following table depicts the steps for compound dilution (please note that the last step was the addition of compound to cells/media in tissue culture plate).
Because some compounds were present in 96-well format at 20 mM, the following represents the protocol for their dilution (note that an average molecular weight of these compounds was used to calculate these dilutions and as above, the last step was the addition of compound to cells/media in tissue culture plate).
Once the compounds were diluted, they were applied in duplicate on cells in tissue culture plates (prepared above). Cells were incubated with compound at 37° C. with 5% CO2 for an additional 36-48 hours.
Luciferase assays (LucLite reagent, Packard) were performed and were read on a Packard TopCount instrument. Media was removed from each 96-well plate and replaced with 100 μL PBS per well (with Mg^2+ and Ca^2+). An equal volume (100 μL) of the LucLite lysis/substrate buffer was added to each well and the plates were sealed and mixed in the dark on a rotary shaker for 15-30 minutes at room temperature. Luciferase readings were then taken on the TopCount instrument. Measurements were expressed as relative light units (RLU) and are calculated and analyzed in MS Excel as follows: […]

CHO-K1 cells = test: Toxicity in RRA (loss of luciferase signal); conditions: toxicity = loss of signal (<0.75 fold increase)
Protocol: The beta amyloid inhibitory activity of the compounds of the present invention was determined using the Repressor Release Assay (RRA).
“Fold Increase” refers to the amount of luciferase activity (measured in relative light units) over diluent control. “SEM” refers to the standard error of the mean for fold increase.

[1] = luciferase activity over diluent control, read-out: APPI Fold Increase
[2] = luciferase activity over diluent control
[3] = luciferase activity (RLU) over diluent control, read-out: APPI Fold Increase
[4] = Conc 20 μg/ml, 1=non-toxic, 0=toxic

SMILES	fold induction at 20 µg/mL (beta amyloid production; [1])	(%)APPI Toxicity (CHO-K1 cells; Conc 20 μg/ml)	fold induction at 20 µg/mL (beta amyloid production; [3])	(%)APPI Toxicity (CHO-K1 cells; [4])	further results
CC(C)[C@@](C)(CO)NS(=O)(=O)c1ccc(Cl)cc1 [Example 37, 4-chloro-N-[(1S)-1-(hydroxymethyl)-1,2-dimethylpropyl]benzenesulfonamide]	4.7	1 (1=non-toxic)			
CC(c1ccccc1)C(CO)NS(=O)(=O)c1ccc(Cl)cc1 (stereo not shown) [Example 38, 4-chloro-N-[1-(hydroxymethyl)-2-phenylpropyl]benzenesulfonamide]	3.3	1 (1=non-toxic)			
CC[C@@H](C)[C@@H](CO)NS(=O)(=O)c1ccc(Cl)cc1 [Example 39, 4-chloro-N-[(1S,2R)-1-(hydroxymethyl)-2-methylbutyl]benzenesulfonamide]	5.5	1 (1=non-toxic)			fold induction at 3 µg/mL (beta amyloid production; Conc 3 μg/ml, luciferase activity over diluent control, read-out: APPI Fold Increase): 1.56; fold induction at 10 µg/mL (beta amyloid production; Conc 10 μg/ml, luciferase activity over diluent control, read-out: APPI Fold Increase): 2.47; (%)APPI Toxicity (CHO-K1 cells; Conc 3 μg/ml): 1 (1=non-toxic); (%)APPI Toxicity (CHO-K1 cells; Conc 10 μg/ml): 1 (1=non-toxic)
C=CCN([C@H](CO)[C@@H](C)CC)S(=O)(=O)c1ccc(Cl)cc1 [Example 40, N-Allyl-4-chloro-N-[(1S,2 S)-1-(hydroxymethyl)-2-methylbutyl]benzenesulfonamide]	3.4	1 (1=non-toxic)			
CC[C@H](C)[C@@H](CO)N(Cc1ccc(-c2ccccc2)cc1)S(=O)(=O)c1ccc(Cl)cc1 [Example 41, N-([1,1′-biphenyl]-4-ylmethyl)-4-chloro-N-[(1S,2S)-1-(hydroxymethyl)-2-methylbutyl]benzenesulfonamide]	4.9	1 (1=non-toxic)			
CC[C@H](C)[C@@H](CO)N(Cc1ccc(Cl)cc1)S(=O)(=O)c1ccc(Cl)cc1 [Example 43, 4-chloro-N-(4-chlorobenzyl)-N-[(1S,2S)-1-(hydroxymethyl)-2-methylbutyl]benzenesulfonamide]	5.1	1 (1=non-toxic)			
CC[C@H](C)[C@@H](CO)N(CC1CCC1)S(=O)(=O)c1ccc(Cl)cc1 [Example 44, 4-chloro-N-(cyclobutylmethyl)-N-[(1S,2S)-1-(hydroxymethyl)-2-methylbutyl] benzenesulfonamide]		1 (1=non-toxic)			APPI Fold Increase (beta amyloid production; [2]): 2.6 fold; APPI % of Example #98 (beta amyloid production): 95.7%
CC[C@H](C)[C@@H](CO)N(Cc1ccc(OC)c(OC)c1)S(=O)(=O)c1ccc(Cl)cc1 [Example 45, 4-chloro-N-(3,4-dimethoxybenzyl)-N-[(1S,2S)-1-(hydroxymethyl)-2-methylbutyl]benzenesulfonamide]	1.5	1 (1=non-toxic)			
CC[C@H](C)[C@@H](CO)N(Cc1ccco1)S(=O)(=O)c1ccc(Cl)cc1 [Example 46, 4-chloro-N-(2-furylmethyl)-N-[(1S,2S)-1-(hydroxymethyl)-2-methylbutyl]benzenesulfonamide]	1.8	1 (1=non-toxic)			
CC[C@H](C)[C@@H](CO)N(CCSC)S(=O)(=O)c1ccc(Cl)cc1 [Example 47, 4-chloro-N-[(1S,2S)-1-(hydroxymethyl)-2-methylbutyl]-N-[2-(methylthio)ethyl]benzenesulfonamide]	2.4	1 (1=non-toxic)			
CC[C@H](C)[C@@H](CO)N(CC#Cc1ccccc1)S(=O)(=O)c1ccc(Cl)cc1 [Example 48, 4-chloro-N-[(1S,2S)-1-(hydroxymethyl)-2-methylbutyl]-N-(3-phenylprop-2-ynyl) benzenesulfonamide]		1 (1=non-toxic)			APPI Fold Increase (beta amyloid production; [2]): 3.1 fold; APPI % of Example #98 (beta amyloid production): 116.6%
COc1ccc([C@@H](C)[C@@H](CO)NS(=O)(=O)c2ccc(Cl)cc2)cc1 [Example 49, 4-Chloro-N-[(1S,2R)-1-(hydroxymethyl)-2-(4-methoxyphenyl)propyl]benzenesulfonamide]	2.5	1 (1=non-toxic)			
CCCCCC[C@@H](C)[C@@H](CO)NS(=O)(=O)c1ccc(Cl)cc1 [Example 50, 4-chloro-N-[(1S,2R)-1-(hydroxymethyl)-2-methyloctyl]benzenesulfonamide]	2.5	1 (1=non-toxic)			
C[C@H](c1ccccc1)[C@@H](CO)NS(=O)(=O)c1ccc(Cl)cc1 [Example 51, 4-chloro-N-[(1S,2R)-1-(hydroxymethyl)-2-phenylpropyl]benzenesulfonamide]			1.6	1 (1=non-toxic)	
CCC(CC)[C@@H](CO)NS(=O)(=O)c1ccc(Cl)cc1 [Example 52, 4-chloro-N-[(1S)-2-ethyl-1-(hydroxymethyl)butyl]benzenesulfonamide]			6.2	1 (1=non-toxic)	
CC[C@H](CC(C)C)[C@@H](CO)NS(=O)(=O)c1ccc(Cl)cc1 [Example 53, 4-chloro-N-[(1S,2R)-2-ethyl-1-(hydroxymethyl)-4-methylpentyl]benzenesulfonamide]			5.2	1 (1=non-toxic)	
CCC[C@H](C)[C@@H](CO)NS(=O)(=O)c1ccc(Cl)cc1 [Example 54, 4-chloro-N-[(1S,2S)-1-(hydroxymethyl)-2-methylpentyl]benzenesulfonamide]			5	1 (1=non-toxic)	
CCC[C@H](CC)[C@@H](CO)NS(=O)(=O)c1ccc(Cl)cc1 [Example 55, 4-chloro-N-[(1S,2S)-2-ethyl-1-(hydroxymethyl)pentyl]benzenesulfonamide]			5.6	1 (1=non-toxic)	
CCC[C@H](CC(C)C)[C@@H](CO)NS(=O)(=O)c1ccc(Cl)cc1 [Example 56, 4-chloro-N-[(1S,2R)-1-(hydroxymethyl)-4-methyl-2-propylpentyl]benzenesulfonamide]			3.6	1 (1=non-toxic)	
CCC[C@H](c1ccc(OC)cc1)[C@@H](CO)NS(=O)(=O)c1ccc(Cl)cc1 [Example 57, 4-chloro-N-[(1S,2R)-1-(hydroxymethyl)-2-(4-methoxyphenyl)pentyl]benzenesulfonamide]			1.7	1 (1=non-toxic)	
CCCCCC[C@@H](CCC)[C@@H](CO)NS(=O)(=O)c1ccc(Cl)cc1 [Example 58, 4-chloro-N-[(1S,2R)-1-(hydroxymethyl)-2-propyloctyl]benzenesulfonamide]			2.6	1 (1=non-toxic)	
CCC[C@H](c1ccccc1)[C@@H](CO)NS(=O)(=O)c1ccc(Cl)cc1 [Example 59, 4-chloro-N-[(1S,2R)-1-(hydroxymethyl)-2-phenylpentyl]benzenesulfonamide]			3.2	1 (1=non-toxic)	
CCCCC[C@H](C)[C@@H](CO)NS(=O)(=O)c1ccc(Cl)cc1 [Example 60, 4-chloro-N-[(1S,2S)-1-(hydroxymethyl)-2-methylheptyl]benzenesulfonamide]			4.6	1 (1=non-toxic)	
CCCCC[C@H](CC)[C@@H](CO)NS(=O)(=O)c1ccc(Cl)cc1 [Example 61, 4-chloro-N-[(1S,2S)-2-ethyl-1-(hydroxymethyl)-heptyl]benzenesulfonamide]			6.5	1 (1=non-toxic)	
CCCCCC[C@@H](CCCCC)[C@@H](CO)NS(=O)(=O)c1ccc(Cl)cc1 [Example 62, 4-chloro-N-[(1S,2R)-1-(hydroxymethyl)-2-pentyloctyl]benzenesulfonamide]			1.8	1 (1=non-toxic)	
C[C@@H](c1ccccc1)[C@@H](CO)NS(=O)(=O)c1ccc(Cl)cc1 [Example 63, 4-chloro-N-[(1S,2S)-1-(hydroxymethyl)-2-phenylpropyl]benzenesulfonamide]			2	1 (1=non-toxic)	
